Reference: the NIST ThermoML archive (doi:10.1016/j.jct.2015.08.014)

Assay: xn = mol fraction of the nth substance listed
Conditions: 100 kPa, Liquid; for electrical conductivity: Alternating current cell with electrodes; for mass density: Vibrating tube method; for viscosity: Capillary tube (Ostwald / Ubbelohde) method

CCCC[N+]1(C)CCCC1.N#CN=C=[N-] [1-butyl-1-methylpyrrolidinium dicyanamide] + O=C1CCCO1
electrical conductivity [S/m], 293.15 K
Conditions	Frequency=0.00652174 MHz	Frequency=0.00694444 MHz	Frequency=0.0075 MHz	Frequency=0.008 MHz	Frequency=0.00857143 MHz	Frequency=0.00892857 MHz	Frequency=0.00961538 MHz	Frequency=0.01 MHz
x1 = 0.0463	–	1.37	1.37	1.37	1.37	1.37	1.37	1.37
x1 = 0.0987	–	2.05	2.05	2.05	2.05	2.05	2.05	2.05
x1 = 0.1449	2.31	2.31	2.31	2.31	2.31	2.31	2.31	2.31
x1 = 0.1859	2.45	2.45	2.45	2.45	2.45	2.45	2.45	2.45
x1 = 0.2493	2.37	2.37	2.37	2.37	2.38	2.38	2.38	2.38
x1 = 0.3029	2.29	2.29	2.29	2.29	2.3	2.3	2.3	2.3
x1 = 0.3845	2.116	2.116	2.116	2.116	2.12	2.12	2.12	2.12
x1 = 0.4985	1.84	1.84	1.84	1.84	1.84	1.84	1.84	1.84
x1 = 0.6954	1.46	1.46	1.46	1.46	1.46	1.46	1.46	1.46
x1 = 0.9013	1.19	1.19	1.19	1.19	1.19	1.19	1.19	1.19
x1 = 1	1.123	1.123	1.123	1.123	1.123	1.124	1.124	1.124

Conditions	electrical conductivity, 298.15 K [S/m]	mass density, 293.15 K [kg/m3]	viscosity, 298.15 K [mPa·s]
x1 = 0.0463	1.47	–	–
x1 = 0.0987	2.21	1107.56	2.8
x1 = 0.1449	2.51	–	–
x1 = 0.1859	2.67	1091.31	4.02
x1 = 0.2493	2.613	–	–
x1 = 0.3029	2.54	1073.37	6.19
x1 = 0.3845	2.36	–	–
x1 = 0.4985	2.08	1050.78	–
x1 = 0.6954	1.68	1034.23	–
x1 = 0.9013	1.39	1021.32	–
x1 = 1	1.317	1016.28	–
